Laboratory results taken from ChEMBL document CHEMBL3638784, “Fused bicyclic oxazolidinone CETP inhibitor” (2014).

Target: T1, Cholesteryl ester transfer protein (Homo sapiens, UniProt P11597)
T1 sequence (P11597 whole entry): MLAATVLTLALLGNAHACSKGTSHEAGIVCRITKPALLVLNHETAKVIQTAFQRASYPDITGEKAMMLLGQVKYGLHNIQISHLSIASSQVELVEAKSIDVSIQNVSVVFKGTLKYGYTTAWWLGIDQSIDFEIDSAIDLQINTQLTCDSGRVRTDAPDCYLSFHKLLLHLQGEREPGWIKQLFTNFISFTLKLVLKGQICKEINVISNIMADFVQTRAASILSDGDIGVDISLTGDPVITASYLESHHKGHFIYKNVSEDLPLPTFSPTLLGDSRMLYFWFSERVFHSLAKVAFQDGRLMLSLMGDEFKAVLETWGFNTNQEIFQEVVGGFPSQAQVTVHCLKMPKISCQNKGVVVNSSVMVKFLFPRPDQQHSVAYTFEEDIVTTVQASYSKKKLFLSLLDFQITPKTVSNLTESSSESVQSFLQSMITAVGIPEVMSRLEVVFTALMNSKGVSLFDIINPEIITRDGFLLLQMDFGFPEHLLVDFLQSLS
Assay: Scintillation Proximity Assay (SPA): First, low density lipoprotein (LDL) (Meridian) was biotinylated by incubating LDL with biotin for 1 hour on ice, after which it was dialyzed to remove free biotin. Then compounds at varying concentrations were incubated with 15 nM CETP (reagent production group, In Vitro Pharmacology, MRL Rahway) and 50 ug/ml of the biotinylated LDL in 50 mM HEPES, 150 mM NaCl, pH 7.4, for 1 hour at 37° C. The reaction was started by adding 3H-cholesterol ester high density lipoprotein (HDL) (American Radiochemicals Corp) at a concentration of ~0.6 nM. The reaction proceeded for 2 hours at 37° C., after which time it was quenched by the addition of 12% acetic acid. PVT streptavadin-coated scintillation proximity beads, which had been brought to room temperature, were then added at a concentration of 4 mg/ml. The assay was then mixed and counted after one half hour in a Microbeta plate reader.

N#Cc1cccc(-c2ccc(C(F)(F)F)cc2[C@@H]2CC[C@H]3[C@@H](c4cc(C(F)(F)F)cc(C(F)(F)F)c4)OC(=O)N23)c1
IC50: 177 nM
